Reference: the supplement of paper PMC9938120

How the values were obtained:
Assay in all cases: drug sensitivity score (DSS3, normalised partial AUC of % inhibition dose-response) (DSS (score)); higher = more sensitive (stronger inhibition of viability); extreme values may be limits of the assay
Settings in all cases: 72 h; library: FO5A; assay format: 2D, 384-well, CellTiter-Glo
FMOC02_1 = system: FMOC02_1 (patient-derived low-grade serous ovarian cancer cells)
Procedure, shortened: (§1)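 Patient-derived ovarian cancer cells (early passage, under 10) were dispensed onto 384-well flat clear-bottom plates pre-plated with compounds at five concentrations covering a 10,000-fold range. Plates were incubated 72 h at 37 °C, 5% CO2, and viability was read with CellTiter-Glo. Data were processed in Breeze. The drug sensitivity score (DSS3) is a partial area under the percent-inhibition dose-response curve, divided by the log of the upper asymptote; higher means more sensitive.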

FMOC02_2 = system: FMOC02_2 (patient-derived low-grade serous ovarian cancer cells)
Procedure, shortened: as §1

FMOC02_3 = system: FMOC02_3 (patient-derived low-grade serous ovarian cancer cells)
Procedure, shortened: as §1

FMOC03 = system: FMOC03 (patient-derived mucinous ovarian cancer cells)
Procedure, shortened: as §1

FMOC04 = system: FMOC04 (patient-derived high-grade serous ovarian cancer cells)
Procedure, shortened: as §1

FMOC06 = system: FMOC06 (patient-derived mucinous ovarian cancer cells)
Procedure, shortened: as §1

FMOC09 = system: FMOC09 (patient-derived high-grade serous ovarian cancer cells)
Procedure, shortened: as §1

FMOC11 = system: FMOC11 (patient-derived high-grade serous ovarian cancer cells)
Procedure, shortened: as §1

FMOC14 = system: FMOC14 (patient-derived high-grade serous ovarian cancer cells)
Procedure, shortened: as §1

FMOC17 = system: FMOC17 (patient-derived low-grade serous ovarian cancer cells)
Procedure, shortened: as §1

FMOC22 = system: FMOC22 (patient-derived mucinous ovarian cancer cells)
Procedure, shortened: as §1

FMOC24 = system: FMOC24 (patient-derived high-grade serous ovarian cancer cells)
Procedure, shortened: as §1

FMOC25_2 = system: FMOC25_2 (patient-derived low-grade serous ovarian cancer cells)
Procedure, shortened: as §1

FMOC27 = system: FMOC27 (patient-derived low-grade serous ovarian cancer cells)
Procedure, shortened: as §1

FMOC28 = system: FMOC28 (patient-derived low-grade serous ovarian cancer cells)
Procedure, shortened: as §1

`O=C(Nc1cnn2ccc(N3CCC[C@@H]3c3cc(F)ccc3F)nc12)N1CC[C@H](O)C1` [Larotrectinib] showed a drug sensitivity score (FMOC02_1) of 0, a drug sensitivity score (FMOC02_2) of 0 and a drug sensitivity score (FMOC02_3) of 0. For the same compound, the drug sensitivity score (FMOC03) was 0, the drug sensitivity score (FMOC04) was 0 and the drug sensitivity score (FMOC06) was 0. For the same compound, the drug sensitivity score (FMOC09) was 0, the drug sensitivity score (FMOC11) was 0 and the drug sensitivity score (FMOC14) was 0. It also gave a drug sensitivity score (FMOC17) of 0, a drug sensitivity score (FMOC22) of 0 and a drug sensitivity score (FMOC24) of 0. The drug sensitivity score (FMOC25_2) was 0, the drug sensitivity score (FMOC27) was 0 and the drug sensitivity score (FMOC28) was 0.
Compound `O=c1ncn2nc(Sc3ccc(F)cc3F)ccc2c1-c1c(Cl)cccc1Cl` [Neflamapimod] has a drug sensitivity score (FMOC02_1) of 0, a drug sensitivity score (FMOC02_2) of 0 and a drug sensitivity score (FMOC02_3) of 0. It also gave a drug sensitivity score (FMOC03) of 0, a drug sensitivity score (FMOC04) of 0 and a drug sensitivity score (FMOC06) of 0.3. For the same compound, the drug sensitivity score (FMOC09) was 1.1, the drug sensitivity score (FMOC11) was 1 and the drug sensitivity score (FMOC14) was 0. For the same compound, the drug sensitivity score (FMOC17) was 0, the drug sensitivity score (FMOC22) was 0 and the drug sensitivity score (FMOC24) was 0.05. For the same compound, the drug sensitivity score (FMOC25_2) was 0, the drug sensitivity score (FMOC27) was 0.1 and the drug sensitivity score (FMOC28) was 1.1.
Compound `CC[C@]12C=CCN3CC[C@@]4(c5cc([C@@]6(C(=O)OC)C[C@@H]7C[C@@H](C(C)(F)F)CN(Cc8c6[nH]c6ccccc86)C7)c(OC)cc5N(C)[C@H]4[C@@](O)(C(=O)OC)[C@@H]1OC(C)=O)[C@@H]32` [Vinflunine] has a drug sensitivity score (FMOC02_1) of 3.6, a drug sensitivity score (FMOC02_2) of 3.2 and a drug sensitivity score (FMOC02_3) of 5.8. For the same compound, the drug sensitivity score (FMOC03) was 1.7, the drug sensitivity score (FMOC04) was 4.1 and the drug sensitivity score (FMOC06) was 0.8. The drug sensitivity score (FMOC09) was 3.6, the drug sensitivity score (FMOC11) was 3.4 and the drug sensitivity score (FMOC14) was 0. The drug sensitivity score (FMOC17) was 5.1, the drug sensitivity score (FMOC22) was 0.9 and the drug sensitivity score (FMOC24) was 0. It also gave a drug sensitivity score (FMOC25_2) of 3.6, a drug sensitivity score (FMOC27) of 0.6 and a drug sensitivity score (FMOC28) of 1.3.
In the case of `C[C@@H]1CN(C(=O)c2ccc(NC(=O)c3cc(O[C@H](C)c4c(Cl)ccc(F)c4Cl)c(N)nn3)cc2)C[C@H](C)N1` [Ensartinib], the drug sensitivity score (FMOC02_1) is reported as 4.3, the drug sensitivity score (FMOC02_2) is reported as 0.4 and the drug sensitivity score (FMOC02_3) is reported as 1.6. It also gave a drug sensitivity score (FMOC03) of 0, a drug sensitivity score (FMOC04) of 0.05 and a drug sensitivity score (FMOC06) of 3. For the same compound, the drug sensitivity score (FMOC09) was 1.1, the drug sensitivity score (FMOC11) was 0.2 and the drug sensitivity score (FMOC14) was 0. The drug sensitivity score (FMOC17) was 1.5, the drug sensitivity score (FMOC22) was 0.1 and the drug sensitivity score (FMOC24) was 0.7. For the same compound, the drug sensitivity score (FMOC25_2) was 0.8, the drug sensitivity score (FMOC27) was 0 and the drug sensitivity score (FMOC28) was 2.2.
`N#Cc1ccnc(N2C(=O)CC[C@H]2C(=O)N(c2cncc(F)c2)[C@H](C(=O)NC2CC(F)(F)C2)c2ccccc2Cl)c1` [Ivosidenib] showed a drug sensitivity score (FMOC02_1) of 0.2, a drug sensitivity score (FMOC02_2) of 0 and a drug sensitivity score (FMOC02_3) of 0. It also gave a drug sensitivity score (FMOC03) of 0, a drug sensitivity score (FMOC04) of 0 and a drug sensitivity score (FMOC06) of 0. The drug sensitivity score (FMOC09) was 0, the drug sensitivity score (FMOC11) was 0 and the drug sensitivity score (FMOC14) was 0. The drug sensitivity score (FMOC17) was 0.3, the drug sensitivity score (FMOC22) was 0 and the drug sensitivity score (FMOC24) was 0.2. For the same compound, the drug sensitivity score (FMOC25_2) was 0, the drug sensitivity score (FMOC27) was 0 and the drug sensitivity score (FMOC28) was 2.6.
In the case of `CC(O)c1cc(C(=O)N[C@@H](C)Cn2ccc(-c3ccc(C#N)c(Cl)c3)n2)n[nH]1` (stereo not given in full) [ODM-201], the drug sensitivity score (FMOC02_1) is reported as 0, the drug sensitivity score (FMOC02_2) is reported as 0 and the drug sensitivity score (FMOC02_3) is reported as 0. For the same compound, the drug sensitivity score (FMOC03) was 0.4, the drug sensitivity score (FMOC04) was 0 and the drug sensitivity score (FMOC06) was 0.7. For the same compound, the drug sensitivity score (FMOC09) was 0.9, the drug sensitivity score (FMOC11) was 0 and the drug sensitivity score (FMOC14) was 0. For the same compound, the drug sensitivity score (FMOC17) was 0, the drug sensitivity score (FMOC22) was 0 and the drug sensitivity score (FMOC24) was 0. For the same compound, the drug sensitivity score (FMOC25_2) was 0.5, the drug sensitivity score (FMOC27) was 0 and the drug sensitivity score (FMOC28) was 0.
Work on `CN1CCN(c2ccc(C(=O)Nc3n[nH]c4ccc(Cc5cc(F)cc(F)c5)cc34)c(NC3CCOCC3)c2)CC1` [Entrectinib] yielded a drug sensitivity score (FMOC02_1) of 0.3, a drug sensitivity score (FMOC02_2) of 1.5 and a drug sensitivity score (FMOC02_3) of 2.7. It also gave a drug sensitivity score (FMOC03) of 0, a drug sensitivity score (FMOC04) of 0.1 and a drug sensitivity score (FMOC06) of 1.4. It also gave a drug sensitivity score (FMOC09) of 0.3, a drug sensitivity score (FMOC11) of 1.1 and a drug sensitivity score (FMOC14) of 0. It also gave a drug sensitivity score (FMOC17) of 1.9, a drug sensitivity score (FMOC22) of 0 and a drug sensitivity score (FMOC24) of 0. It also gave a drug sensitivity score (FMOC25_2) of 2.7, a drug sensitivity score (FMOC27) of 0 and a drug sensitivity score (FMOC28) of 2.2.
`O=c1[nH]c(=O)n([C@H]2C[C@H](O)[C@@H](CO)O2)cc1C(F)(F)F` [Trifluridine] gave a drug sensitivity score (FMOC02_1) of 0, a drug sensitivity score (FMOC02_2) of 0 and a drug sensitivity score (FMOC02_3) of 0. It also gave a drug sensitivity score (FMOC03) of 0, a drug sensitivity score (FMOC04) of 0 and a drug sensitivity score (FMOC06) of 1.2. For the same compound, the drug sensitivity score (FMOC09) was 0, the drug sensitivity score (FMOC11) was 0.3 and the drug sensitivity score (FMOC14) was 0. It also gave a drug sensitivity score (FMOC17) of 0, a drug sensitivity score (FMOC22) of 0 and a drug sensitivity score (FMOC24) of 0. The drug sensitivity score (FMOC25_2) was 0.2, the drug sensitivity score (FMOC27) was 0.5 and the drug sensitivity score (FMOC28) was 0.
With `CN1CCC(COc2cnc(-c3cccc(Cn4nc(-c5cccc(C#N)c5)ccc4=O)c3)nc2)CC1` [Tepotinib] the drug sensitivity score (FMOC02_1) was 0.3, the drug sensitivity score (FMOC02_2) was 1.6 and the drug sensitivity score (FMOC02_3) was 3.7. The drug sensitivity score (FMOC03) was 0.2, the drug sensitivity score (FMOC04) was 0.75 and the drug sensitivity score (FMOC06) was 0. The drug sensitivity score (FMOC09) was 0, the drug sensitivity score (FMOC11) was 0 and the drug sensitivity score (FMOC14) was 0. It also gave a drug sensitivity score (FMOC17) of 0.5, a drug sensitivity score (FMOC22) of 0 and a drug sensitivity score (FMOC24) of 1.9. The drug sensitivity score (FMOC25_2) was 2.3, the drug sensitivity score (FMOC27) was 0 and the drug sensitivity score (FMOC28) was 3.4.
Work on `O[C@H](C[C@H]1c2c(F)cccc2-c2cncn21)[C@H]1CC[C@H](O)CC1` [GDC-0919] yielded a drug sensitivity score (FMOC02_1) of 0.2, a drug sensitivity score (FMOC02_2) of 3.6 and a drug sensitivity score (FMOC02_3) of 2.1. The drug sensitivity score (FMOC03) was 0.1, the drug sensitivity score (FMOC04) was 0 and the drug sensitivity score (FMOC06) was 1. For the same compound, the drug sensitivity score (FMOC09) was 0.3, the drug sensitivity score (FMOC11) was 1.7 and the drug sensitivity score (FMOC14) was 0.8. For the same compound, the drug sensitivity score (FMOC17) was 0.8, the drug sensitivity score (FMOC22) was 0.4 and the drug sensitivity score (FMOC24) was 0.55. The drug sensitivity score (FMOC25_2) was 0.1, the drug sensitivity score (FMOC27) was 2 and the drug sensitivity score (FMOC28) was 2.2.
For `CC[C@@H]1[C@H](F)C(=O)N[C@@H]1COc1nccc2cc(C(N)=O)c(OC)cc12`, the drug sensitivity score (FMOC02_1) was 2.6, the drug sensitivity score (FMOC02_2) was 0.6 and the drug sensitivity score (FMOC02_3) was 5.2. The drug sensitivity score (FMOC03) was 0, the drug sensitivity score (FMOC04) was 0 and the drug sensitivity score (FMOC06) was 0. The drug sensitivity score (FMOC09) was 0, the drug sensitivity score (FMOC11) was 0 and the drug sensitivity score (FMOC14) was 0. The drug sensitivity score (FMOC17) was 0, the drug sensitivity score (FMOC22) was 0 and the drug sensitivity score (FMOC24) was 0. For the same compound, the drug sensitivity score (FMOC25_2) was 4, the drug sensitivity score (FMOC27) was 0.5 and the drug sensitivity score (FMOC28) was 0.
Work on `COCC[n+]1c2c(n(Cc3cnccn3)c1C)C(=O)c1ccccc1C2=O` [Sepantronium bromide] yielded a drug sensitivity score (FMOC02_1) of 38.4, a drug sensitivity score (FMOC02_2) of 30.6 and a drug sensitivity score (FMOC02_3) of 36.1. For the same compound, the drug sensitivity score (FMOC03) was 39, the drug sensitivity score (FMOC04) was 38.1 and the drug sensitivity score (FMOC06) was 32.9. For the same compound, the drug sensitivity score (FMOC09) was 43.7, the drug sensitivity score (FMOC11) was 37.8 and the drug sensitivity score (FMOC14) was 42.6. The drug sensitivity score (FMOC17) was 36.9, the drug sensitivity score (FMOC22) was 33.2 and the drug sensitivity score (FMOC24) was 33.5. It also gave a drug sensitivity score (FMOC25_2) of 41.4, a drug sensitivity score (FMOC27) of 30.9 and a drug sensitivity score (FMOC28) of 43.
